PubChem BioAssay (NCI)
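48-hour exposure; five concentrations; linearly interpolated endpoints. GI50: concentration for 50% inhibition of growth. TGI: total growth inhibition.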

What was measured:
Test in all cases: inhibition of tumour cell growth, NCI panel, 48 h
[1] = tested on: DU-145 prostate
[2] = tested on: UO-31 renal
[3] = tested on: A498 renal
[4] = tested on: OVCAR-4 ovarian
[5] = tested on: TK-10 renal
[6] = tested on: HS 578T breast
[7] = tested on: HCC-2998 colon
[8] = tested on: SW-620 colon
[9] = tested on: IGROV1 ovarian
[10] = tested on: HOP-92 NSCLC
[11] = tested on: HCT-116 colon
[12] = tested on: MDA-N
[13] = tested on: CAKI-1 renal
[14] = tested on: UACC-62 melanoma
[15] = tested on: OVCAR-5 ovarian
[16] = tested on: NCI-H522 lung
[17] = tested on: HT29 colon
[18] = tested on: RPMI-8226 leukemia
[19] = tested on: HL-60(TB) leukemia
[20] = tested on: SF-295 CNS
[21] = tested on: EKVX NSCLC
[22] = tested on: ACHN renal
[23] = tested on: SF-268 CNS
[24] = tested on: SF-539 CNS
[25] = tested on: SK-MEL-5 melanoma
[26] = tested on: SNB-19 CNS
[27] = tested on: RXF 393 renal
[28] = tested on: MALME-3M melanoma
[29] = tested on: NCI-H460 lung
[30] = tested on: A549 NSCLC
[31] = tested on: SK-OV-3 ovarian
[32] = tested on: OVCAR-8 ovarian
[33] = tested on: NCI-H226 lung
[34] = tested on: COLO 205 colon
[35] = tested on: NCI-H23 lung
[36] = tested on: UACC-257 melanoma
[37] = tested on: SN12C renal
[38] = tested on: M14 melanoma
[39] = tested on: SK-MEL-28 melanoma
[40] = tested on: SNB-75 CNS
[41] = tested on: HCT-15 colon
[42] = tested on: U251 CNS
[43] = tested on: BT-549 breast
[44] = tested on: MCF7 breast
[45] = tested on: 786-0 renal
[46] = tested on: OVCAR-3 ovarian
[47] = tested on: NCI/ADR-RES ovarian
[48] = tested on: LOX IMVI melanoma
[49] = tested on: MDA-MB-231 breast
[50] = tested on: PC-3 prostate
[51] = tested on: KM12 colon
[52] = tested on: T-47D breast
[53] = tested on: MDA-MB-435
[54] = tested on: HOP-62 NSCLC
[55] = tested on: MOLT-4 leukemia
[56] = tested on: K-562 leukemia
[57] = tested on: SR leukemia
[58] = tested on: CCRF-CEM leukemia
[59] = tested on: SK-MEL-2 melanoma

O=C(Nc1ccccc1)N1N=C(c2ccccc2)C1c1ccccc1 (stereo unspecified)
TGI [1]: > 100 µM
TGI [2]: 69.6 µM
TGI [3]: 42.7 µM
TGI [4]: > 100 µM
TGI [5]: > 100 µM
TGI [6]: 60.7 µM
TGI [7]: > 100 µM
TGI [8]: > 100 µM
TGI [9]: > 100 µM
TGI [10]: 91.9 µM
TGI [11]: 44.8 µM
TGI [12]: 70.7 µM
TGI [13]: 95.3 µM
TGI [14]: 45.7 µM
TGI [15]: > 100 µM
TGI [16]: 37 µM
TGI [17]: 39.8 µM
TGI [18]: 30.6 µM
TGI [19]: > 100 µM
TGI [20]: 73.8 µM
TGI [21]: > 100 µM
TGI [22]: 65.8 µM
TGI [23]: 50.8 µM
TGI [24]: 34.5 µM
TGI [25]: 54.7 µM
TGI [26]: > 100 µM
TGI [27]: 44.5 µM
TGI [28]: 64.2 µM
TGI [29]: > 100 µM
TGI [30]: > 100 µM
TGI [31]: > 100 µM
TGI [32]: > 100 µM
TGI [33]: 37.3 µM
TGI [34]: > 100 µM
TGI [35]: 72.1 µM
TGI [36]: > 100 µM
TGI [37]: > 100 µM
TGI [38]: 60.4 µM
TGI [39]: > 100 µM
TGI [40]: 32 µM
TGI [41]: > 100 µM
TGI [42]: > 100 µM
TGI [43]: 64.4 µM
TGI [44]: 51.8 µM
TGI [45]: 36.6 µM
TGI [46]: 42.1 µM
TGI [47]: 82.2 µM
TGI [48]: 89.6 µM
TGI [49]: > 100 µM
TGI [50]: 35.3 µM
TGI [51]: > 100 µM
TGI [52]: > 100 µM

C=C(CC1(CC(=C)c2ccc(C(=O)O)cc2)C(=O)N(C)C(=O)N(C)C1=O)c1ccc(C(=O)O)cc1
GI50 [1]: > 100 µM
TGI [1]: > 100 µM
GI50 [2]: 57.2 µM
TGI [2]: > 100 µM
GI50 [3]: 53.2 µM
TGI [3]: > 100 µM
GI50 [4]: 23.2 µM
TGI [4]: > 100 µM
GI50 [5]: 16 µM
TGI [5]: > 100 µM
GI50 [6]: 67.8 µM
TGI [6]: > 100 µM
GI50 [7]: 61.2 µM
TGI [7]: > 100 µM
GI50 [8]: > 100 µM
TGI [8]: > 100 µM
GI50 [9]: 47.4 µM
TGI [9]: > 100 µM
GI50 [10]: 78.4 µM
TGI [10]: > 100 µM
GI50 [11]: 49.6 µM
TGI [11]: > 100 µM
GI50 [13]: 60.3 µM
TGI [13]: > 100 µM
GI50 [14]: 42.7 µM
TGI [14]: > 100 µM
GI50 [15]: 43.6 µM
TGI [15]: > 100 µM
GI50 [16]: 31.3 µM
TGI [16]: > 100 µM
GI50 [53]: 51.7 µM
TGI [53]: > 100 µM
GI50 [17]: 48.7 µM
TGI [17]: > 100 µM
GI50 [18]: 21.8 µM
TGI [18]: > 100 µM
GI50 [19]: 34.4 µM
TGI [19]: > 100 µM
GI50 [20]: > 100 µM
TGI [20]: > 100 µM
GI50 [21]: > 100 µM
TGI [21]: > 100 µM
GI50 [22]: > 100 µM
TGI [22]: > 100 µM
GI50 [23]: 70.4 µM
TGI [23]: > 100 µM
GI50 [54]: 66.5 µM
TGI [54]: > 100 µM
GI50 [24]: > 100 µM
TGI [24]: > 100 µM
GI50 [25]: 73.1 µM
TGI [25]: > 100 µM
GI50 [26]: > 100 µM
TGI [26]: > 100 µM
GI50 [27]: > 100 µM
TGI [27]: > 100 µM
GI50 [29]: > 100 µM
TGI [29]: > 100 µM
GI50 [30]: > 100 µM
TGI [30]: > 100 µM
GI50 [31]: 6.02 µM
TGI [31]: 58.7 µM
GI50 [32]: 62.8 µM
TGI [32]: > 100 µM
GI50 [33]: > 100 µM
TGI [33]: > 100 µM
GI50 [55]: 38.3 µM
TGI [55]: > 100 µM
GI50 [34]: 29.1 µM
TGI [34]: > 100 µM
GI50 [35]: > 100 µM
TGI [35]: > 100 µM
GI50 [56]: 35.9 µM
TGI [56]: > 100 µM
GI50 [36]: 34.9 µM
TGI [36]: > 100 µM
GI50 [37]: 59.2 µM
TGI [37]: > 100 µM
GI50 [38]: > 100 µM
TGI [38]: > 100 µM
GI50 [39]: > 100 µM
TGI [39]: > 100 µM
GI50 [40]: 25.2 µM
TGI [40]: > 100 µM
GI50 [41]: > 100 µM
TGI [41]: > 100 µM
GI50 [57]: 23.9 µM
TGI [57]: > 100 µM
GI50 [42]: 54.2 µM
TGI [42]: > 100 µM
GI50 [43]: > 100 µM
TGI [43]: > 100 µM
GI50 [44]: 73.9 µM
TGI [44]: > 100 µM
GI50 [45]: > 100 µM
TGI [45]: > 100 µM
GI50 [46]: 96.6 µM
TGI [46]: > 100 µM
GI50 [47]: 63.8 µM
TGI [47]: > 100 µM
GI50 [48]: 80.8 µM
TGI [48]: > 100 µM
GI50 [49]: > 100 µM
TGI [49]: > 100 µM
GI50 [50]: 63.2 µM
TGI [50]: > 100 µM
GI50 [51]: > 100 µM
TGI [51]: > 100 µM
GI50 [58]: 65.2 µM
TGI [58]: > 100 µM
GI50 [52]: 25.2 µM
TGI [52]: > 100 µM
GI50 [59]: > 100 µM
TGI [59]: > 100 µM
